From PMC11955804, “Histidine-rich enantiomeric peptide coacervates enhance antigen sequestration and presentation to T cells” (Chemical Science, 2025)

Tests used:
Assay type in all cases: physicochemical
[1] = Turbidity assay of LLPS; details: 1× PBS pH 7.4, absorbance at 600 nm over 24 h, plate reader
Source text: Peptide synthesis and purification
The L- and D-enantiomers of (GHGLY)4, (GHGVY)4 and (GHGPY)4 peptides were purchased from GenScript and used without further modification. (GHGAY)4, (GHGFY)4, (GHGIY)4 and (GHGNY)4 were synthesized using standard Fmoc-SPPS chemistry on Rink Amide with Oxyma (Ethyl cyano(hydroxyimino) acetate) and N, N′-diisopropylcarbodiimide (DIC) as coupling agents on a Liberty Blue microwave-assisted synthesizer. Peptides were cleaved using a cocktail of trifluoroacetic acid (TFA), tri-isopropyl silane (TIS), and H2O (95:2.5:2.5) and extracted and washed in cold diethyl ether. The resulting pellet was dissolved in acetonitrile/water mixture (50:50) and frozen prior to lyophilization. Peptides were purified (~90%) using High Performance Liquid Chromatography (HPLC) on a Dionex Ultimate 3000 HPLC equipped with a diode-array detector on an Agilent Poroshell RP-C18 column (4.6 mm×150 mm), operating at a flow rate of 1 mL/min. […]
Peptide solutions (0.25–1.5 mM) were prepared in 1×PBS at pH 7.4. Aliquots (140 µL) were pipetted into a 96-well plate and absorbance at 600 nm was measured over 24 h using a Synergy HT plate reader (Biotek, USA) at RT or 37°C with or without agitation. The pH dependence of LLPS formation was assessed in 0.1 M potassium phosphate buffer (with 150 mM NaCl) at different pH values (5.8, 6.6, 7.4, 8.0) and 1 mM peptide concentration. […]
NaCl) was used to study ionic strength effects. The absorbance was further converted to turbidity using methods previously described 1 and data was plotted as relative turbidity. […]
Droplets were visualized in 1×PBS using NCI Leica DMC4500 microscope in reflection mode with differential interference contrast. […] Coacervate size was measured using 1 mM peptide solutions (1×PBS, pH 7.4) on a ZEN 3600 Zetasizer (Malvern Instruments, UK) using DLS-Zen 0040 specialized cuvettes. […]
Viscosity of the peptide solutions (1 mM or 2 mM) was tested using an ARES 2000ex rotational rheometer (TA Instruments, New Castle, DE). […] Viscosity was measured as a function

[2] = Droplet coalescence assay; details: video still images over 15 min; mixing of fluorophore-loaded droplets
Procedure: wavelength range of 215–260 nm with a bandwidth of 1.00 nm, 0.5 nm step. Solvent background was subtracted from each spectrum and data converted to mean residue ellipticity (MRE).
Droplet coalescence assays
Experiments were conducted to visualize the dynamic process of droplet fusion by capturing a series of still images over 15 min, with each acquisition every 500 ms. Contrast and brightness were adjusted to ensure optimal visibility of the coacervates, and noise cancellation was applied to reduce background interference. Frame correction aligned the images to account for shifts that occurred during capture. Additional enhancements included sharpening to visualize finer details and color correction to ensure that the visual representation closely matched the actual observation. The images were meticulously stacked to create a continuous video sequence that provided a dynamic view of the peptides' behavior, showing the evolution of coacervates from their initial formation, through stabilization and fusion. Significant fusion events were identified and marked with arrows. Advanced tracking algorithms were employed to follow movement and changes within the coacervates, and event segmentation was used to isolate specific interactions […]
Stem cell-derived cardiomyocytes and confocal microscopy […]

[3] = Encapsulation efficiency measurement; details: 1 mM peptide, 1 µM eGFP in PBS; centrifuged 15,000 × g 10 min; fluorescence of supernatant (λex 395 nm, λem 510 nm)
Procedure: Encapsulation efficiency measurements […]
powders to a final peptide concentration of 1 mM. Cargo concentrations in the stock solutions […]
nm and λem: 519 nm). For small molecule dyes, similar methods were used. The encapsulation efficiency was determined as reported previously 12.
Cellular uptake and antigen presentation assays […]
to addition of OVA-loaded coacervates. Final OVA concentration was 1 µg/mL for time- […]
37°C and complete RPMI media served as controls. Soluble OVA and PBS treated cells were used as controls for antigen delivery.

turbidity over time (A600) [1] | droplet fusion (coalescence) [2] | eGFP loading efficiency [3] [%] | Substance
formed a turbid solution instantaneously | multiple rapid fusion events | ~90 | (GHGLY)4 [GL 20]
steadily increased over 24 h | did not exhibit fusion behavior | ~75 | (GHGVY)4 [GV 20]
